Experimental data from patent publication US20220144823A1, “PYRAZOLOPYRIDINE DERIVATIVES AS INHIBITORS OF PASK” (Galapagos NV, priority 2019, published 2022).

Test system: diabetic non human primates (NHPs) under a high-calorie diet (HCD)
Test: Diabetic monkey model;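 also: male obese diabetic cynomolgus monkeys fed a high-fat, high-fructose diet, randomized into 4 groups, dosed with test compound for 8 weeks, then a 4-week washout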
Conditions: for Oral glucose tolerance test (glucose AUC): fasted animals; for Hepatic echogenicity (H/R ratio): Hepatic (right lobe)/Renal cortex (right kidney) ratio, ultrasound
[1] = week 1, treatment, metformin 25 mg/kg b.i.d., Cpd 18 30 mg/kg q.d., p.o.
[2] = week 2, treatment, metformin 25 mg/kg b.i.d., Cpd 18 30 mg/kg q.d., p.o.
[3] = week 3, treatment, metformin 25 mg/kg b.i.d., Cpd 18 30 mg/kg q.d., p.o.
[4] = week 4, treatment, metformin 25 mg/kg b.i.d., Cpd 18 30 mg/kg q.d., p.o.
[5] = week 9, washout without treatment
[6] = week 10, washout without treatment
[7] = week 11, washout without treatment
[8] = week 12, washout without treatment

Protocol: The aim of this assay is to determine the effect of a test compound on lipid metabolism and glucose handling in diabetic non human primates (NHPs) under a high-calorie diet (HCD) consisting of high-fat and high-fructose.
Male obese diabetic cynomolgus monkeys were selected based on their body weights, glucose, insulin levels, and blood lipid parameters. The inclusion criteria were the following: age ≤22 years; fasted plasma glucose between 120 and 300 mg/dL; triglycerides >125 mg/dL, and insulin >75 mIU/mL.
The animals are maintained at 20-23° C. and 40-70% humidity on a 12 h light/dark cycle (7 AM-7 PM). Water is provided ad libitum and the animals are fed twice daily with the high-calorie diet (HCD) enriched with seasonal fruits or vegetables.
After the baseline period, animals were randomized into 4 groups according to body weight, as well as their blood glucose and lipid parameters.
The following parameters were measured once per week during the 8 weeks of treatment and also during the 4 weeks of washout: • body weight • food consumption • blood chemistry (fasted blood glucose, plasma triglycerides, plasma total cholesterol, low density lipoproteins (LDL), and high density lipoproteins (HDL))
Oral glucose tolerance was measured in fasted animals before treatment initiation (baseline), at the end of the treatment period (week 8), and after 4 weeks of washout (week 12).

Cc1nn(C(C)C)c(C)c1-c1cnn2ccc(-c3cc(C(=O)O)co3)cc12 [Cpd 18, 5-[3-(1-isopropyl-3,5-dimethyl-pyrazol-4-yl)pyrazolo[1,5-a]pyridin-5-yl]furan-3-carboxylic acid]
HDL change (% change from baseline) (Group 2, week 1, treatment): 14.1%
LDL change (% change from baseline) (Group 2, week 1, treatment): 52.8%
Total cholesterol change (% change from baseline) (Group 2, week 1, treatment): 48.2 % change from baseline
Triglyceride change (% change from baseline) (Group 2, week 1, treatment): −33.3 % change from baseline
HDL change (% change from baseline) (Group 2, week 2, treatment): 8.4%
LDL change (% change from baseline) (Group 2, week 2, treatment): 38.3%
Total cholesterol change (% change from baseline) (Group 2, week 2, treatment): 33.8 % change from baseline
Triglyceride change (% change from baseline) (Group 2, week 2, treatment): −31.2 % change from baseline
HDL change (% change from baseline) (Group 2, week 3, treatment): 6.2%
LDL change (% change from baseline) (Group 2, week 3, treatment): 16.6%
Total cholesterol change (% change from baseline) (Group 2, week 3, treatment): 18.6 % change from baseline
Triglyceride change (% change from baseline) (Group 2, week 3, treatment): −36.7 % change from baseline
HDL change (% change from baseline) (Group 2, week 4, treatment): −4.3%
LDL change (% change from baseline) (Group 2, week 4, treatment): 31.0%
Total cholesterol change (% change from baseline) (Group 2, week 4, treatment): 28.0 % change from baseline
Triglyceride change (% change from baseline) (Group 2, week 4, treatment): −44.2 % change from baseline
HDL change (% change from baseline) (Group 2, week 5, treatment): 4.2%
LDL change (% change from baseline) (Group 2, week 5, treatment): 5.1%
Total cholesterol change (% change from baseline) (Group 2, week 5, treatment): 3.2 % change from baseline
Triglyceride change (% change from baseline) (Group 2, week 5, treatment): −62.6 % change from baseline
HDL change (% change from baseline) (Group 2, week 6, treatment): 11.7%
LDL change (% change from baseline) (Group 2, week 6, treatment): −10.5%
Total cholesterol change (% change from baseline) (Group 2, week 6, treatment): −6.7 % change from baseline
Triglyceride change (% change from baseline) (Group 2, week 6, treatment): −59.6 % change from baseline
HDL change (% change from baseline) (Group 2, week 7, treatment): 13.0%
LDL change (% change from baseline) (Group 2, week 7, treatment): −17.2%
Total cholesterol change (% change from baseline) (Group 2, week 7, treatment): −12.0 % change from baseline
Triglyceride change (% change from baseline) (Group 2, week 7, treatment): −55.9 % change from baseline
HDL change (% change from baseline) (Group 2, week 8, treatment): 12.4%
LDL change (% change from baseline) (Group 2, week 8, treatment): −10.5%
Total cholesterol change (% change from baseline) (Group 2, week 8, treatment): −5.1 % change from baseline
Triglyceride change (% change from baseline) (Group 2, week 8, treatment): −39.3 % change from baseline
HDL change (% change from baseline) (Group 2, week 9, washout): 13.5%
LDL change (% change from baseline) (Group 2, week 9, washout): −1.6%
Total cholesterol change (% change from baseline) (Group 2, week 9, washout): 5.8 % change from baseline
Triglyceride change (% change from baseline) (Group 2, week 9, washout): −33.4 % change from baseline
HDL change (% change from baseline) (Group 2, week 10, washout): 22.7%
LDL change (% change from baseline) (Group 2, week 10, washout): 38.6%
Total cholesterol change (% change from baseline) (Group 2, week 10, washout): 42.4 % change from baseline
Triglyceride change (% change from baseline) (Group 2, week 10, washout): 9.8 % change from baseline
HDL change (% change from baseline) (Group 2, week 11, washout): 21.2%
LDL change (% change from baseline) (Group 2, week 11, washout): 81.5%
Total cholesterol change (% change from baseline) (Group 2, week 11, washout): 83.8 % change from baseline
Triglyceride change (% change from baseline) (Group 2, week 11, washout): 49.7 % change from baseline
HDL change (% change from baseline) (Group 2, week 12, washout): 24.9%
LDL change (% change from baseline) (Group 2, week 12, washout): 118.6%
Total cholesterol change (% change from baseline) (Group 2, week 12, washout): 115.8 % change from baseline
Triglyceride change (% change from baseline) (Group 2, week 12, washout): 32.2 % change from baseline
HDL change (% change from baseline) (Group 3, week 1, treatment): 18.6%
LDL change (% change from baseline) (Group 3, week 1, treatment): 60.5%
Total cholesterol change (% change from baseline) (Group 3, week 1, treatment): 46.1 % change from baseline
Triglyceride change (% change from baseline) (Group 3, week 1, treatment): −20.2 % change from baseline
HDL change (% change from baseline) (Group 3, week 2, treatment): 3.7%
LDL change (% change from baseline) (Group 3, week 2, treatment): 58.3%
Total cholesterol change (% change from baseline) (Group 3, week 2, treatment): 41.5 % change from baseline
Triglyceride change (% change from baseline) (Group 3, week 2, treatment): −56.1 % change from baseline
HDL change (% change from baseline) (Group 3, week 3, treatment): 7.7%
LDL change (% change from baseline) (Group 3, week 3, treatment): 35.1%
Total cholesterol change (% change from baseline) (Group 3, week 3, treatment): 22.3 % change from baseline
Triglyceride change (% change from baseline) (Group 3, week 3, treatment): −41.6 % change from baseline
HDL change (% change from baseline) (Group 3, week 4, treatment): −12.0%
LDL change (% change from baseline) (Group 3, week 4, treatment): −28.7%
Total cholesterol change (% change from baseline) (Group 3, week 4, treatment): −22.3 % change from baseline
Triglyceride change (% change from baseline) (Group 3, week 4, treatment): −44.5 % change from baseline
HDL change (% change from baseline) (Group 3, week 5, treatment): 1.0%
LDL change (% change from baseline) (Group 3, week 5, treatment): −27.5%
Total cholesterol change (% change from baseline) (Group 3, week 5, treatment): −21.0 % change from baseline
Triglyceride change (% change from baseline) (Group 3, week 5, treatment): −44.4 % change from baseline
HDL change (% change from baseline) (Group 3, week 6, treatment): 9.5%
LDL change (% change from baseline) (Group 3, week 6, treatment): −33.2%
Total cholesterol change (% change from baseline) (Group 3, week 6, treatment): −26.5 % change from baseline
Triglyceride change (% change from baseline) (Group 3, week 6, treatment): −46.2 % change from baseline
HDL change (% change from baseline) (Group 3, week 7, treatment): 8.3%
LDL change (% change from baseline) (Group 3, week 7, treatment): −39.4%
Total cholesterol change (% change from baseline) (Group 3, week 7, treatment): −30.5 % change from baseline
Triglyceride change (% change from baseline) (Group 3, week 7, treatment): −35.0 % change from baseline
HDL change (% change from baseline) (Group 3, week 8, treatment): −0.9%
LDL change (% change from baseline) (Group 3, week 8, treatment): −27.9%
Total cholesterol change (% change from baseline) (Group 3, week 8, treatment): −20.4 % change from baseline
Triglyceride change (% change from baseline) (Group 3, week 8, treatment): −37.4 % change from baseline
HDL change (% change from baseline) (Group 3, week 9, washout): 1.5%
LDL change (% change from baseline) (Group 3, week 9, washout): −41.8%
Total cholesterol change (% change from baseline) (Group 3, week 9, washout): −31.5 % change from baseline
Triglyceride change (% change from baseline) (Group 3, week 9, washout): −49.3 % change from baseline
HDL change (% change from baseline) (Group 3, week 10, washout): 8.0%
LDL change (% change from baseline) (Group 3, week 10, washout): −13.5%
Total cholesterol change (% change from baseline) (Group 3, week 10, washout): −8.2 % change from baseline
Triglyceride change (% change from baseline) (Group 3, week 10, washout): −45.9 % change from baseline
HDL change (% change from baseline) (Group 3, week 11, washout): 21.9%
LDL change (% change from baseline) (Group 3, week 11, washout): 10.2%
Total cholesterol change (% change from baseline) (Group 3, week 11, washout): 15.5 % change from baseline
Triglyceride change (% change from baseline) (Group 3, week 11, washout): −19.9 % change from baseline
HDL change (% change from baseline) (Group 3, week 12, washout): 23.9%
LDL change (% change from baseline) (Group 3, week 12, washout): 46.2%
Total cholesterol change (% change from baseline) (Group 3, week 12, washout): 48.7 % change from baseline
Triglyceride change (% change from baseline) (Group 3, week 12, washout): 18.8 % change from baseline
HDL change (% change from baseline) (Group 4, week 1, treatment): 2.1%
LDL change (% change from baseline) (Group 4, week 1, treatment): 67.1%
Total cholesterol change (% change from baseline) (Group 4, week 1, treatment): 50.9 % change from baseline
Triglyceride change (% change from baseline) (Group 4, week 1, treatment): −31.7 % change from baseline
HDL change (% change from baseline) (Group 4, week 2, treatment): −13.1%
LDL change (% change from baseline) (Group 4, week 2, treatment): 46.7%
Total cholesterol change (% change from baseline) (Group 4, week 2, treatment): 30.3 % change from baseline
Triglyceride change (% change from baseline) (Group 4, week 2, treatment): −30.0 % change from baseline
HDL change (% change from baseline) (Group 4, week 3, treatment): −14.9%
LDL change (% change from baseline) (Group 4, week 3, treatment): 33.6%
Total cholesterol change (% change from baseline) (Group 4, week 3, treatment): 20.9 % change from baseline
Triglyceride change (% change from baseline) (Group 4, week 3, treatment): −28.2 % change from baseline
HDL change (% change from baseline) (Group 4, week 4, treatment): −16.0%
LDL change (% change from baseline) (Group 4, week 4, treatment): −21.9%
Total cholesterol change (% change from baseline) (Group 4, week 4, treatment): −22.6 % change from baseline
Triglyceride change (% change from baseline) (Group 4, week 4, treatment): −48.3 % change from baseline
HDL change (% change from baseline) (Group 4, week 5, treatment): −6.9%
LDL change (% change from baseline) (Group 4, week 5, treatment): 0.0%
Total cholesterol change (% change from baseline) (Group 4, week 5, treatment): −7.8 % change from baseline
Triglyceride change (% change from baseline) (Group 4, week 5, treatment): −52.3 % change from baseline
HDL change (% change from baseline) (Group 4, week 6, treatment): 0.3%
LDL change (% change from baseline) (Group 4, week 6, treatment): 2.1%
Total cholesterol change (% change from baseline) (Group 4, week 6, treatment): −2.6 % change from baseline
Triglyceride change (% change from baseline) (Group 4, week 6, treatment): −50.8 % change from baseline
HDL change (% change from baseline) (Group 4, week 7, treatment): 0.9%
LDL change (% change from baseline) (Group 4, week 7, treatment): −38.5%
Total cholesterol change (% change from baseline) (Group 4, week 7, treatment): −32.9 % change from baseline
Triglyceride change (% change from baseline) (Group 4, week 7, treatment): −63.2 % change from baseline
HDL change (% change from baseline) (Group 4, week 8, treatment): 8.7%
LDL change (% change from baseline) (Group 4, week 8, treatment): −32.5%
Total cholesterol change (% change from baseline) (Group 4, week 8, treatment): −26.1 % change from baseline
Triglyceride change (% change from baseline) (Group 4, week 8, treatment): −56.1 % change from baseline
HDL change (% change from baseline) (Group 4, week 9, washout): 18.9%
LDL change (% change from baseline) (Group 4, week 9, washout): −20.0%
Total cholesterol change (% change from baseline) (Group 4, week 9, washout): −15.5 % change from baseline
Triglyceride change (% change from baseline) (Group 4, week 9, washout): −60.2 % change from baseline
HDL change (% change from baseline) (Group 4, week 10, washout): 6.0%
LDL change (% change from baseline) (Group 4, week 10, washout): 29.3%
Total cholesterol change (% change from baseline) (Group 4, week 10, washout): 10.9 % change from baseline
Triglyceride change (% change from baseline) (Group 4, week 10, washout): −58.1 % change from baseline
HDL change (% change from baseline) (Group 4, week 11, washout): 11.0%
LDL change (% change from baseline) (Group 4, week 11, washout): 45.1%
Total cholesterol change (% change from baseline) (Group 4, week 11, washout): 28.5 % change from baseline
Triglyceride change (% change from baseline) (Group 4, week 11, washout): −41.4 % change from baseline
HDL change (% change from baseline) (Group 4, week 12, washout): 12.0%
LDL change (% change from baseline) (Group 4, week 12, washout): 87.5%
Total cholesterol change (% change from baseline) (Group 4, week 12, washout): 58.3 % change from baseline
Triglyceride change (% change from baseline) (Group 4, week 12, washout): −65.4 % change from baseline
Oral glucose tolerance test (glucose AUC) (week 0, baseline (before treatment initiation)): 2371 mmol·min/L
Bodyweight change (% change from baseline) [1]: 0.4%
HbA1c change (% change from baseline) [1]: −6.3%
Bodyweight change (% change from baseline) [2]: −1.9%
HbA1c change (% change from baseline) [2]: −9.4%
Bodyweight change (% change from baseline) [3]: −3.8%
HbA1c change (% change from baseline) [3]: −17.2%
Bodyweight change (% change from baseline) [4]: −5.6%
HbA1c change (% change from baseline) [4]: −24.1%
Oral glucose tolerance test (glucose AUC) (week 8, end of treatment period): 2307 mmol·min/L
Bodyweight change (% change from baseline) [5]: −13.6%
HbA1c change (% change from baseline) [5]: −30.7%
Hepatic echogenicity (H/R ratio) (week 9, washout): 1.03
Bodyweight change (% change from baseline) [6]: −14.5%
HbA1c change (% change from baseline) [6]: −25.6%
Bodyweight change (% change from baseline) [7]: −14.3%
HbA1c change (% change from baseline) [7]: −21.3%
Oral glucose tolerance test (glucose AUC) (week 12, after 4 weeks of washout): 2291 mmol·min/L
Bodyweight change (% change from baseline) [8]: −14.8%
HbA1c change (% change from baseline) [8]: −27.9%
Hepatic echogenicity (H/R ratio) (week −3, baseline): 1.13
